Data taken from publication PMC3158675, “Effective inhibitors of the essential kinase PknB and their potential as anti-mycobacterial agents” (Tuberculosis (Edinburgh, Scotland), 2011).

Legend:
Assay type in all cases: cell-based
M. smegmatis fbpA mutant = settings: mutant compared with wild type
M. tuberculosis [1] = test: Alamar blue MIC with efflux pump inhibitors reserpine and verapamil; settings: reserpine or verapamil at 20 or 40 μg/ml
M. tuberculosis [2] = test: Alamar blue MIC with cell wall weakening agent ethambutol at 0.5 MIC

Row | Compound | Improvement of MIC in M. smegmatis fbpA mutant (M. smegmatis fbpA mutant) | other results
1 | CC[C@@H](CO)NCCN[C@@H](CC)CO [ethambutol] | not improved | 
2 | CN[C@H](CC(C)C)C(=O)N[C@H]1C(=O)N[C@@H](CC(N)=O)C(=O)N[C@H]2C(=O)N[C@H]3C(=O)N[C@H](C(=O)N[C@H](C(=O)O)c4cc(O)cc(O)c4-c4cc3ccc4O)[C@H](O)c3ccc(c(Cl)c3)Oc3cc2cc(c3O[C@@H]2O[C@H](CO)[C@@H](O)[C@H](O)[C@H]2O[C@H]2C[C@](C)(N)[C@H](O)[C@H](C)O2)Oc2ccc(cc2Cl)[C@H]1O [vancomycin] | 16 fold | 
3 | CC[n+]1c(-c2ccccc2)c2cc(N)ccc2c2ccc(N)cc21 [ethidium bromide] |  | Decrease of MIC with efflux pump inhibitor (M. tuberculosis [1]): 4 fold
4 | [H]/N=C(/N)N[C@H]1[C@H](O)[C@@H](O)[C@H](O[C@@H]2O[C@@H](C)[C@](O)(C=O)[C@H]2O[C@@H]2O[C@@H](CO)[C@H](O)[C@@H](O)[C@@H]2NC)[C@@H](N/C(N)=N\[H])[C@@H]1O [streptomycin] | not improved | 
5 | CC[C@H]1OC(=O)[C@H](C)[C@@H](O[C@H]2C[C@@](C)(OC)[C@@H](O)[C@H](C)O2)[C@H](C)[C@@H](O[C@@H]2O[C@H](C)C[C@H](N(C)C)[C@H]2O)[C@](C)(O)C[C@@H](C)C(=O)[C@H](C)[C@@H](O)[C@]1(C)O [erythromycin] | 8 fold | 
6 | CO[C@H]1/C=C/O[C@@]2(C)Oc3c(C)c(O)c4c(O)c(c(/C=N/N5CCN(C)CC5)c(O)c4c3C2=O)NC(=O)/C(C)=C\C=C\[C@H](C)[C@H](O)[C@@H](C)[C@@H](O)[C@@H](C)[C@H](OC(C)=O)[C@@H]1C [rifampicin] |  | Reduction of MIC in the presence of sub-inhibitory ethambutol (M. tuberculosis [2]): 4 fold
